Measured values from patent US20200345745A1 (University of Leicester, priority 2017, published 2020).
Where two headings read alike, the source gives them in different places.

What was measured:
[1] = biological target: T1, recombinant Homo Sapiens kynurenine 3-monooxygenase (HsKMO) (Homo sapiens, UniProt O15229); assay: Inhibition of recombinant Homo sapiens KMO (NADPH consumption at 340 nm); assay type: biochemical; details: 0.5 μM HsKMO, L-Kyn 250 μM, NADPH 200 μM, pH 8.0, triplicate
T1 construct: The gene encoding full-length human KMO was synthesized; glutathione S-transferase (GST; vector pAcGHLT-A); made in house; host or cells: Hi5 insect cells (baculovirus)
T1 sequence (O15229 whole entry): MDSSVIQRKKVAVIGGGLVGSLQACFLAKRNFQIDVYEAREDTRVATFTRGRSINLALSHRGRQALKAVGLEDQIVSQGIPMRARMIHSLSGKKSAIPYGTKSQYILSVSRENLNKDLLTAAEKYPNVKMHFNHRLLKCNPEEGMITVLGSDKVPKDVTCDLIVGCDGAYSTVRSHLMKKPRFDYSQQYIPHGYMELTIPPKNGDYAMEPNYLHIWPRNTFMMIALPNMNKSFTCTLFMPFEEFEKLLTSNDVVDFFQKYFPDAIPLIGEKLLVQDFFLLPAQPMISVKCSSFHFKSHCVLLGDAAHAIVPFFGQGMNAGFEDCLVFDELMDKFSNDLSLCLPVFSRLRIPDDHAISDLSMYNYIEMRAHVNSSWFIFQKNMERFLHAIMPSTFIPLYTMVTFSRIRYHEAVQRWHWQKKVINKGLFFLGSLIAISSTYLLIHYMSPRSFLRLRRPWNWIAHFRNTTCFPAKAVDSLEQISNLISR
Experimental: The gene encoding full-length human KMO was synthesized (GeneScript) and codon optimized for overexpression in […]. The gene was subcloned into the baculovirus transfer vector pAcGHLT-A-glutathione S-transferase as a Ndel-EcoRI fragment and transfected into Hi5 cells along with linearized baculovirus using the following sense and antisense primers: […]
Cultured cells were lysed in 20 mM potassium phosphate buffer, pH 7.5, 10% glycerol, 0.5% n-dodecyl β-D-maltoside (DDM), 150 mM NaCl, 7 mM 2-mercaptoethanol and 50 μM FAD supplemented with protease inhibitors (Sigma-Aldrich). Soluble lysate was incubated with 3 ml pre-equilibrated glutathione uniflow resin (Clontech). […] Fractions (0.5 ml) were eluted with buffer C (buffer B+33 mM glutathione) and fractions containing KMO pooled, concentrated and loaded onto a Superdex 200 (10/30) size-exclusion chromatography column. Pure KMO was pooled and stored at −80° C.
(§1) KMO activity was measured in the presence of a range of compound concentrations by monitoring the consumption of NADPH at 340 nm upon addition of enzyme via a Cary 50 UV-Vis spectrophotometer (Agilent Technologies). All measurements were performed in triplicate. The IC50 values for each compound were obtained by plotting the percentage inhibition versus the inhibitor concentration and fitting to the Morrison equation using Origin 9.0 software (OriginLab, Northampton, Mass.).

[2] = biological target: recombinant P. fluorescens kynurenine 3-monooxygenase (PfKMO) (Pseudomonas fluorescens, UniProt Q84HF5, C252S/C461S); assay: biochemical
Sequence of recombinant P. fluorescens kynurenine 3-monooxygenase (PfKMO) (Q84HF5 whole entry C252S/C461S): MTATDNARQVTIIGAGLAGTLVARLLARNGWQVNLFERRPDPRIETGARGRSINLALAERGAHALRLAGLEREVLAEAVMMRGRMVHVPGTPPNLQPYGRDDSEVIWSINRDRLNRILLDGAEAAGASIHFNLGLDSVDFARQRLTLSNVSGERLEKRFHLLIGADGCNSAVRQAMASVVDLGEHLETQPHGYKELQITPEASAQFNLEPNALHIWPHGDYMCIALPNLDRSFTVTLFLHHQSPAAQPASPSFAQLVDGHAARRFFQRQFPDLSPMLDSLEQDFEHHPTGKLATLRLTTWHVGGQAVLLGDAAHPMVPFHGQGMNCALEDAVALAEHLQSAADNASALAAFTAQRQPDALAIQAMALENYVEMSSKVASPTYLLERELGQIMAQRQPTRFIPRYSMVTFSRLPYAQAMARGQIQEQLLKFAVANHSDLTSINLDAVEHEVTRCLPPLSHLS
Experimental: Protein was expressed by growing transformed cells in auto induction LB medium (Fermentas) containing 100 μg/mL for 24 hours at 22° C. […] The cell lysate was centrifuged at 180,000 g for 1 hour at 4° C. to remove cell debris. The soluble cell lysate was loaded onto Q-sepharose column equilibrated with anion exchange buffer (20 mM HEPES pH 7.5, 1 mM DTT with 10 mM NaCl) and bound protein was eluted with a gradient (5 column volumes) of increasing NaCl concentration from 50 to 100 mM in anion exchange buffer. Fractions containing KMO were pooled and precipitated in 50% saturated ammonium sulphate by adding precipitation buffer (20 mM HEPES pH 7.5, 3 M ammonium sulphate, 1 mM DTT). The precipitated protein was pelleted by centrifugation at 12,000 g for 20 min, resuspended in a small volume of size exclusion buffer (20 mM HEPES pH 7.0, 150 mM sodium acetate, 1 mM DTT) and passed down a Superdex 75 column. Pure PfKMO was pooled and stored at −80° C.
as §1

[3] = test system: KMO; details: literature value; read-out: IC50 (KMO inhibition); cited from earlier work

SMILES | IC50 [1] [µM] | IC50 [2] [µM] | IC50 [3] [µM] | IC50 ([2]; read-out: IC50 for PfKMO inhibition, 0.1 μM PfKMO, L-Kyn 250 μM, NADPH 200 μM, pH 7.5, triplicate) [µM]
COC(=O)CN1C(=O)COc2cc(C)c(Cl)c(C)c21 [Example 1, methyl 2-(6-chloro-5,7-dimethyl-3-oxo-1,4-benzoxazin-4-yl)acetate] | > 100 | > 100 |  | 
NC(CC(=O)c1ccc(Cl)c(Cl)c1)C(=O)O (racemic) [(R,S)-3,4-dichlorobenzoylalanine] |  |  | 0.9 | 
Cc1cc2c(c(C)c1Cl)N(Cc1nn[nH]n1)C(=O)CO2 [Example 9, 6-chloro-5,7-dimethyl-4-(2H-tetrazol-5-ylmethyl)-1,4-benzoxazin-3-one] | 1.28 |  |  | 17
O=C(O)[C@H]1C[C@@H]1C(=O)c1ccc(Cl)c(Cl)c1 [UPF-648] |  |  | 0.02 | 
CNC(=O)CN1C(=O)COc2cc(C)c(Cl)c(C)c21 [Example 7] | > 100 | > 100 |  | 
Cc1cc2c(c(C)c1Cl)N(CC(=O)OC(C)C)C(=O)CO2 [Example 3, isopropyl 2-(6-chloro-5,7-dimethyl-3-oxo-1,4-benzoxazin-4-yl)acetate] | > 100 | > 100 |  | 
Cc1cc2c(c(C)c1Cl)N(CC(N)=O)C(=O)CO2 [Example 8, 2-(6-chloro-5,7-dimethyl-3-oxo-1,4-benzoxazin-4-yl)acetamide] | > 100 | > 100 |  | 
Cc1cc2c(c(C)c1Cl)N(CC(=O)OC(C)(C)C)C(=O)CO2 [Example 4, tert-butyl 2-(6-chloro-5,7-dimethyl-3-oxo-1,4-benzoxazin-4-yl)acetate] | > 100 | > 100 |  | 
CCOC(=O)CN1C(=O)COc2cc(C)c(Cl)c(C)c21 [Example 2, ethyl 2-(6-chloro-5,7-dimethyl-3-oxo-1,4-benzoxazin-4-yl)acetate] | > 100 | > 100 |  | 
Cc1cc2c(c(C)c1Cl)N(CC(=O)N(C)C)C(=O)CO2 [Example 6, 2-(6-chloro-5,7-dimethyl-3-oxo-1,4-benzoxazin-4-yl)-N,N-dimethyl-acetamide] | > 100 | > 100 |  | 
